According to patent publication US11648254B2 (Kumquat Biosciences Inc., priority 2021, dated 2023):
pIC50: −log10 of the molar value. Where two headings read alike, the source gives them in different places.

Assays:
[1] = test system: NCI-H1975 cells (EGFR T790M L858R); test: EGFR-SOS cellular inhibition assay (CellTiter-Glo, 3D); assay type: cell-based; details: Homo sapiens
[2] = target: SOS1 (Homo sapiens (Human), UniProt Q07889); test: Ras-SOS interaction assay (HTRF); assay type: biochemical
SOS1, sequence (Q07889 564-1049): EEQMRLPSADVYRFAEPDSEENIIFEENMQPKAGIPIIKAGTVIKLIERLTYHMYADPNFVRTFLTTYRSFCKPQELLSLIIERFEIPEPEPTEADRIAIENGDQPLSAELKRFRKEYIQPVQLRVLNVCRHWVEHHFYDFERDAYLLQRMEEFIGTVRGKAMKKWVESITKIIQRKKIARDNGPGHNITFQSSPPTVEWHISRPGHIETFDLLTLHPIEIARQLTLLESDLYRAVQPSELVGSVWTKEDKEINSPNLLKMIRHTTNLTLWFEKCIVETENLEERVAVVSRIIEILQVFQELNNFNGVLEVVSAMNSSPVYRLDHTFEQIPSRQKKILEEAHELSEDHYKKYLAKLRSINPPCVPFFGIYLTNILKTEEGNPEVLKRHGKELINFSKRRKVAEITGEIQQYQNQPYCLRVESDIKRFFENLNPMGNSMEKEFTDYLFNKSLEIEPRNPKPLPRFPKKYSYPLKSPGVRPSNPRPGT

[3] = test system: MIA PaCa-2 cells (K-Ras G12C); test: Ras-SOS cellular growth inhibition assay (CellTiter-Glo, 3D); assay type: cell-based; details: Homo sapiens
Method in brief: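 MIA PaCa-2 cells grown in ultra-low-attachment plates (3D) in DMEM/Ham's F12 with 10% FCS and 2.5% horse serum, treated the day after seeding with a 9-point 3-fold compound series for about 5 days. Viability by CellTiter-Glo luminescence; IC50 from four-parameter fit.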

[4] = Metabolic (microsomal) stability assay; assay type: in vitro ADME; details: mouse liver microsomes, T1/2; read-out: DMPK-invitro-metabolic Stability (Mouse T1/2)
Text: Example 12: Metabolic (Microsomal) Stability Assay

[5] = In vitro plasma protein binding (PPB); assay type: in vitro ADME; details: percentage of free/unbound compound
[6] = 120 h, NCI-H1975, 3D proliferation, about 5 days, read-out: Bio-Cell-Prolif-3D (H1975 IC50)
[7] = NCI-H1975, EGFR T790M L858R, read-out: IC50 in inhibiting growth of NCI-H1975 cell line
[8] = K-RasG13D utilized, read-out: IC50 inhibition of SOS
[9] = MIA PaCa-2, 120 h, MIA PaCa-2, 3D proliferation, about 5 days, read-out: Bio-Cell-Prolif-3D (MiaPaca2 IC50)
[10] = MIA PaCa-2, MIA PaCa-2, read-out: IC50 in inhibiting MIA PaCa-2 cell growth
[11] = K-RasG13D, read-out: IC50 value against SOS1

SMILES | pIC50 [1, 6] | pIC50 [1, 7] | pIC50 [2, 8] | pIC50 [3, 9] | pIC50 [3, 10] | half-life [4] [h] | pIC50 [2, 11] | DMPK-invitro-PPB (Mouse Unbound) [%] [5] [%]
Cc1nc(N[C@H](C)c2cccc(C(F)(F)C(C)(C)O)c2F)c2cc(C3(C#N)CC3)c(Cl)nc2n1 [Compound 170, (R)-1-(7-chloro-4-((1-(3-(1,1-difluoro-2-hydroxy-2-methylpropyl)-2-fluorophenyl)ethyl)amino)-2-methylpyrido[2,3-d]pyrimidin-6-yl)cyclopropane-1-carbonitrile] | ≥ 6.00 | > 6.30 | > 7.00 | ≥ 6.00 | > 6.30 | > 3.33 |  | 
Cc1nc(N[C@H](C)c2cccc(C(F)(F)C(C)(C)O)c2)c2cc(C3(C#N)CC3)c(Cl)nc2n1 [Compound 193, (R)-1-(7-chloro-4-((1-(3-(1,1-difluoro-2-hydroxy-2-methylpropyl)phenyl)ethyl)amino)-2-methylpyrido[2,3-d]pyrimidin-6-yl)cyclopropane-1-carbonitrile] | ≥ 6.00 | > 6.30 | > 7.00 | ≥ 6.00 | > 6.30 | > 3.33 | > 7.30 | 
Cc1nc(N[C@H](C)c2cccc(C(F)(F)CO)c2F)c2cc(C3(C#N)CC3)c(Cl)nc2n1 [Compound 195, (R)-1-(7-chloro-4-((1-(3-(1,1-difluoro-2-hydroxyethyl)-2-fluorophenyl)ethyl)amino)-2-methylpyrido[2,3-d]pyrimidin-6-yl)cyclopropane-1-carbonitrile] | ≥ 6.00 |  | > 7.00 | ≥ 6.00 | > 6.30 | 0.352 | > 7.30 | 
C[C@@H](Nc1ncnc2nc(Cl)c(C3(C#N)CC3)cc12)c1cccc(C(F)F)c1F [Compound 200, (R)-1-(7-chloro-4-((1-(3-(difluoromethyl)-2-fluorophenyl)ethyl)amino)pyrido[2,3-d]pyrimidin-6-yl)cyclopropane-1-carbonitrile] | ≥ 6.00 | > 6.30 | > 7.00 | ≥ 6.00 |  | 2.57 | > 7.30 | 
C[C@@H](Nc1ncnc2nc(Cl)c(C3(C#N)CC3)cc12)c1cccc(C(F)(F)[C@@H](C)O)c1 [Compound 214, 1-(7-chloro-4-(((R)-1-(3-((R)-1,1-difluoro-2-hydroxypropyl)phenyl)ethyl)amino)pyrido[2,3-d]pyrimidin-6-yl) cyclopropane-1-carbonitrile] | ≥ 6.00 | > 6.30 | > 7.00 | ≥ 6.00 | > 6.30 | > 3.33 | > 7.30 | 
Cc1nc(N[C@H](C)c2cccc(C(F)(F)[C@@H](C)O)c2)c2cc(C3(C#N)CC3)c(Cl)nc2n1 [Compound 219, 1-(7-chloro-4-(((R)-1-(3-((R)-1,1-difluoro-2-hydroxypropyl)phenyl)ethyl)amino)-2-methylpyrido[2,3-d]pyrimidin-6-yl)cyclopropane-1-carbonitrile] | ≥ 6.00 | > 6.30 | > 7.00 | ≥ 6.00 | > 6.30 | 1.65 | > 7.30 | 
COc1nc2ncnc(N[C@H](C)c3cccc(C(F)F)c3F)c2cc1N1CCN(C(C)C)CC1 [Compound 316, (R)-N-(1-(3-(difluoromethyl)-2-fluorophenyl)ethyl)-6-(4-isopropylpiperazin-1-yl)-7-methoxypyrido[2,3-d]pyrimidin-4-amine] | ≥ 6.00 | > 6.30 | > 7.00 | 5.00 to 6.00 |  |  | > 7.30 | 9.83
COc1nc2nc(C)nc(N[C@H](C)c3cccc(C(F)(F)C(C)(C)O)c3F)c2cc1N1CCN(C(C)C)CC1 [Compound 322, (R)-1,1-difluoro-1-(2-fluoro-3-(1-((6-(4-isopropylpiperazin-1-yl)-7-methoxy-2-methylpyrido[2,3-d]pyrimidin-4-yl)amino)ethyl)phenyl)-2-methylpropan-2-ol] | ≥ 6.00 | > 6.30 | > 7.00 | ≥ 6.00 | > 6.30 |  | > 7.30 | 6.33
COc1nc2nc(C)nc(N[C@H](C)c3cccc(C(F)(F)C(C)(C)O)c3)c2cc1N1CCN(C(C)C)CC1 [Compound 325, (R)-1,1-difluoro-1-(3-(1-((6-(4-isopropylpiperazin-1-yl)-7-methoxy-2-methylpyrido[2,3-d]pyrimidin-4-yl)amino)ethyl)phenyl)-2-methylpropan-2-ol] | ≥ 6.00 | > 6.30 | > 7.00 | ≥ 6.00 | > 6.30 |  | > 7.30 | 12.8
COc1nc2ncnc(N[C@H](C)c3cccc(C(F)F)c3F)c2cc1N1CCS(=O)(=O)CC1 [Compound 339, (R)-4-(4-((1-(3-(difluoromethyl)-2-fluorophenyl)ethyl)amino)-7-methoxypyrido[2,3-d]pyrimidin-6-yl)thiomorpholine 1,1-dioxide] | ≥ 6.00 | > 6.30 | > 7.00 | ≥ 6.00 |  |  | > 7.30 | 15.32
COc1nc2ncnc(N[C@H](C)c3cccc(C(F)(F)F)c3C)c2cc1C1CCN(C(C)C)CC1 [Compound 348, (R)-6-(1-isopropylpiperidin-4-yl)-7-methoxy-N-(1-(2-methyl-3-(trifluoromethyl)phenyl)ethyl)pyrido [2,3-d]pyrimidin-4-amine] | ≥ 6.00 | > 6.30 | > 7.00 | ≥ 6.00 |  |  | > 7.30 | 1.03
CCN1CCC(c2cc3c(N[C@H](C)c4cccc(C(F)(F)F)c4C)nc(C)nc3nc2OC)CC1 [Compound 351, (R)-6-(1-ethylpiperidin-4-yl)-7-methoxy-2-methyl-N-(1-(2-methyl-3-(trifluoromethyl)phenyl)ethyl)pyrido [2,3-d]pyrimidin-4-amine] | ≥ 6.00 | > 6.30 | > 7.00 | ≥ 6.00 | > 6.30 |  | > 7.30 | 0.22
CCN1CCC(c2cc3c(N[C@H](C)c4cccc(C(F)(F)F)c4C)ncnc3nc2OC)CC1 [Compound 353, (R)-6-(1-ethylpiperidin-4-yl)-7-methoxy-N-(1-(2-methyl-3-(trifluoromethyl)phenyl)ethyl)pyrido [2,3-d]pyrimidin-4-amine] | ≥ 6.00 | > 6.30 | > 7.00 | ≥ 6.00 | > 6.30 |  | > 7.30 | 0.74
COc1nc2ncnc(N[C@H](C)c3cccc(C(F)(F)F)c3C)c2cc1C1CCS(=O)(=O)CC1 [Compound 373, (R)-4-(7-methoxy-4-((1-(2-methyl-3-(trifluoromethyl)phenyl)ethyl)amino)pyrido[2,3-d]pyrimidin-6-yl)tetrahydro-2H-thiopyran 1,1-dioxide] | ≥ 6.00 |  |  | ≥ 6.00 | > 6.30 |  | > 7.30 | 2.93
COc1nc2ncnc(N[C@H](C)c3cccc(C(F)(F)F)c3C)c2cc1C1CCN(C2CCOCC2)CC1 [Compound 374, (R)-7-methoxy-N-(1-(2-methyl-3-(trifluoromethyl)phenyl)ethyl)-6-(1-(tetrahydro-2H-pyran-4-yl)piperidin-4-yl)pyrido[2,3-d]pyrimidin-4-amine] | ≥ 6.00 | > 6.30 |  | ≥ 6.00 | > 6.30 |  | > 7.30 | 0.45
COc1nc2ncnc(N[C@H](C)c3cccc(C(F)(F)F)c3F)c2cc1C1CCS(=O)(=O)CC1 [Compound 375, (R)-4-(4-((1-(2-fluoro-3-(trifluoromethyl)phenyl)ethyl)amino)-7-methoxypyrido[2,3-d]pyrimidin-6-yl)tetrahydro-2H-thiopyran 1,1-dioxide] | ≥ 6.00 | > 6.30 | > 7.00 | ≥ 6.00 | > 6.30 |  | > 7.30 | 2.67
COc1nc2ncnc(N[C@H](C)c3cccc(C(F)(F)F)c3C)c2cc1N1CCN(C(C)C)CC1 [Compound 376, (R)-6-(4-isopropylpiperazin-1-yl)-7-methoxy-N-(1-(2-methyl-3-(trifluoromethyl)phenyl)ethyl)pyrido [2,3-d]pyrimidin-4-anune] | ≥ 6.00 | > 6.30 | > 7.00 | ≥ 6.00 | > 6.30 |  | > 7.30 | 0.91
COc1nc2nc(C)nc(N[C@H](C)c3cccc(C(F)(F)F)c3C)c2cc1N1CCN(C2CCOCC2)CC1 [Compound 378, (R)-7-methoxy-2-methyl-N-(1-(2-methyl-3-(trifluoromethyl)phenyl)ethyl)-6-(4-(tetrahydro-2H-pyran-4-yl)piperazin-1-yl)pyrido[2,3-d]pyrimidin-4-amine] | ≥ 6.00 | > 6.30 | > 7.00 | ≥ 6.00 | > 6.30 |  | > 7.30 | 0.14
